# What was measured:
# Renin = target: T1, Renin (Homo sapiens, UniProt P00797); test: Inhibition of human recombinant renin expressed in CHO cells using RE(EDANS)IHPFHLVIHTK(Dabcyl)R as substrate incubated for 1 hr prior to substrate addition measured after 2 hrs by FRET-based enzymatic assay
# T1 sequence (P00797 whole entry): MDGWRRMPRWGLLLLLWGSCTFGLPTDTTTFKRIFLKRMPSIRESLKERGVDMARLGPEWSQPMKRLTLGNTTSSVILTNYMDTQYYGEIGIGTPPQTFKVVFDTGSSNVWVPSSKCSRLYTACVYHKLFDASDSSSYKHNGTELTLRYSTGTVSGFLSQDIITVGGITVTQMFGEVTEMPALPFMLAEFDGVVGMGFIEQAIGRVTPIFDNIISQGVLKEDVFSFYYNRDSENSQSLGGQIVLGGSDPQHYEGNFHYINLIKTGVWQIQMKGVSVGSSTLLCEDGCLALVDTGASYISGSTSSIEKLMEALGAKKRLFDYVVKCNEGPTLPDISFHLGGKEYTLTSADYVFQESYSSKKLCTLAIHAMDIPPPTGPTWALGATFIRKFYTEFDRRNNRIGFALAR
# Renin (Homo sapiens) = target: T2, Renin (Homo sapiens) (UniProt P00797); test: Inhibition of human recombinant renin expressed in CHO cells using RE(EDANS)IHPFHLVIHTK(Dabcyl)R as substrate at 10 uM incubated for 1 hr prior to substrate addition measured after 2 hrs by FRET-based enzymatic assay
# T2 sequence (whole entry): T1 sequence (P00797 whole entry)
# Cathepsin E = target: T3, Cathepsin E (Homo sapiens, UniProt P14091); test: Inhibition of human recombinant cathepsin-E expressed in Escherichia coli using Ac- E-D(EDANS)-KPILFFRLG-K(Dabcyl)-E-Amid as substrate incubated for 1 hr prior to substrate addition measured after 1 hr by FRET-based enzymatic assay
# T3 sequence (P14091 whole entry): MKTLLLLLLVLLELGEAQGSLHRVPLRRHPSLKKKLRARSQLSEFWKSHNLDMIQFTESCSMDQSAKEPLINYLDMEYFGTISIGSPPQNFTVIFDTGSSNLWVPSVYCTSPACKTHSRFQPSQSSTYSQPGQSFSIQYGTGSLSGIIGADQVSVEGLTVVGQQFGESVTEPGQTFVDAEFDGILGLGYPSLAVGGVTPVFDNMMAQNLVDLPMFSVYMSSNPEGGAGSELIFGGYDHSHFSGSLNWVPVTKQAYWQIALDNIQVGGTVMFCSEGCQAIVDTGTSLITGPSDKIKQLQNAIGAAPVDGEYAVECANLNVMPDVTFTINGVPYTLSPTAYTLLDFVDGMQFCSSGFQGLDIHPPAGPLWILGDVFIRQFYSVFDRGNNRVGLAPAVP
# Gastricsin = target: T4, Gastricsin (Homo sapiens, UniProt P20142); test: Inhibition of human recombinant pepsin C expressed in Escherichia coli using Dabcyl-E-R-Nle-F-L-S-F-P-EDANS as substrate incubated for 1 hr prior to substrate addition measured after 1 hr by FRET-based enzymatic assay
# T4 sequence (P20142 whole entry): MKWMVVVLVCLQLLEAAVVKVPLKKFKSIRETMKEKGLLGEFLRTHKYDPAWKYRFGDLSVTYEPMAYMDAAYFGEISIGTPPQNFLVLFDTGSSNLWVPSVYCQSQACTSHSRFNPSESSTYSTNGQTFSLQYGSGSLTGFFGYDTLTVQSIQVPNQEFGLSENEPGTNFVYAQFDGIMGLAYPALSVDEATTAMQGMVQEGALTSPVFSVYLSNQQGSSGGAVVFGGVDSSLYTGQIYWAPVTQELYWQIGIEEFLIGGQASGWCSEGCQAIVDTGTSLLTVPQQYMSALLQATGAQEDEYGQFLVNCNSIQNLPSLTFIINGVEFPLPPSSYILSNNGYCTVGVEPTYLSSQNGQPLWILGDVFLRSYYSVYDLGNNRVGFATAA
# [1] = Inhibition of human recombinant pepsin A expressed in Escherichia coli using Dabcyl-E-R-Nle-F-L-S-F-P-EDANS as substrate incubated for 1 hr prior to substrate addition measured after 1 hr by FRET-based enzymatic assay
# Cathepsin D = Cathepsin D (Homo sapiens, UniProt P07339); test: Inhibition of human recombinant cathepsin-D expressed in baculovirus-infected insect sf9 cells using Ac- E-D(EDANS)-KPILFFRLG-K(Dabcyl)-E-Amid as substrate incubated for 1 hr prior to substrate addition measured after 1 hr by FRET-based enzymatic assay
# Sequence of Cathepsin D (P07339 65-162 limits assumed): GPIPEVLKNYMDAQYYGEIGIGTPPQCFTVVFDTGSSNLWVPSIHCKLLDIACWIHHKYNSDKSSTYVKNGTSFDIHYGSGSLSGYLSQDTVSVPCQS
# Sequence of Cathepsin D (P07339 169-412 limits assumed): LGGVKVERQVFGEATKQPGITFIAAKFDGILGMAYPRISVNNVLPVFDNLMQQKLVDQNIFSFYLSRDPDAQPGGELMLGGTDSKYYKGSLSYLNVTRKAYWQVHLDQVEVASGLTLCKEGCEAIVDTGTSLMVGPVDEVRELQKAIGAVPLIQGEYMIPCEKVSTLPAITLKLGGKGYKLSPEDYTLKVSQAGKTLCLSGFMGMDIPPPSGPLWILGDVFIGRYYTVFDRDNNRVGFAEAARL
Structure (SMILES),IC50 (Renin) [µM],other results
COCCCOc1cc(C(=O)N(CC2CNCC2Cc2ccccc2)c2ccc(Cl)cc2)ccc1OC (racemic),1.7,
COCCCOc1cc(CN(CC2CNCC2Cc2ccccc2)c2ccc(Cl)cc2)ccc1OC (racemic),9.8,
c1ccc([C@H]2CCNC[C@@H]2OCc2ccc3ccccc3c2)cc1,,inhibition (Renin (Homo sapiens)): 34%
COCCCOc1cc(CN(CC2CNCC2Cc2ccccc2)C(C)C)ccc1OC (racemic),7.7,
COCCCOc1cc(C(=O)N(C[C@H]2CNC[C@@H]2Cc2ccccc2)C(C)C)ccc1OC,2.7,
COCCCOc1cc(C(=O)N(CC2CNCC2Cc2ccccc2)C(C)C)ccc1OC (racemic),0.45,

# Further lines, with some results ahead:
IC50 (Renin) [µM],Structure (SMILES),other results
18,Clc1ccc(N(C[C@H]2CNC[C@@H]2Cc2ccccc2)c2ccccc2)cc1,
7.6,Clc1ccc(N(C[C@@H]2CNC[C@H]2Cc2ccccc2)c2ccccc2)cc1,IC50 (Cathepsin E): 11 µM; IC50 (Gastricsin): 29 µM; IC50 [1]: 4.5 µM; IC50 (Cathepsin D): 11 µM
1.9,COCCCOc1cc(C(=O)N(CC2CNCC2Cc2ccccc2)c2ccccc2)ccc1OC (racemic),
4.1,Clc1ccc(N(Cc2ccccc2)CC2CNCC2Cc2ccccc2)cc1 (racemic),
14,Clc1ccc(N(CC2CNCC2Cc2ccccc2)c2ccccc2)cc1 (racemic),

# Reference: ChEMBL document CHEMBL2321868, “The discovery of novel potent trans-3,4-disubstituted pyrrolidine inhibitors of the human aspartic protease renin from in silico three-dimensional (3D) pharmacophore searches” (J Med Chem, 2013)
